Assay results reported in patent US20230241257A1, “BIOTIN-MODIFIED DIMER AND USE THEREOF” (THE UNIVERSITY OF TOKYO, priority 2020, published 2023).

System: human stomach cancer cells (MKN-45)
Experiment: Experiment 3: pharmacokinetics of Cupid-scFv antibody (48 h before)+^211At-psyche-B in MKN-45 cancer-bearing mouse models
Type: in vivo, mice (BALB/cSlc nu/nu)
Method: The present experiment highly used CEA-expressing human stomach cancer cells (MKN-45). 9-week-old male immunodeficient mice (BALB/cSlc nu/nu) were used. MKN-45 cells (1×10^7/0.1 ml) were transplanted into the mice's subcutis on the right shoulder dorsal side to produce cancer-bearing mouse models. The mice were divided into four groups when the tumor volume became a predetermined size (on Day 12 after the transplantation). A Cupid-scFv antibody was administered in 100 μmol/0.1 ml via the caudal vein of each mouse. Forty-eight hours after administration of the Cupid-scFv antibody, ^211At-psyche-B (about 0.25 MBq/100 ml) was administered via the caudal vein of the mice. One minute, 1 hour, 6 hours, and 24 hours after administration of the ^211At-psyche-B, the mice were euthanized by collecting whole blood from the heart of each mouse under isoflurane anesthesia, and tumor tissues and normal tissues/organs were then excised. Normal tissues/organs: skin (lower right limb), muscle (right gastrocnemius muscle), heart, lung, spleen, pancreas, white fat (upper portion of right side testis), testis (both sides), stomach, stomach contents, small intestine (including contents), large intestine (including contents), liver, brown fat (interscapular), submandibular gland, thyroid gland (together with trachea), bone (right femur), cerebrum, eyeballs (both sides), bladder, and urine; the remaining residues were divided into three equal parts, and the three equal parts were defined to be residue-1, residue-2, and residue-3. After that, the weights of blood, plasma, urine, tumor, and normal tissues/organs were measured, and the radioactivity thereof was then measured using a γ counter. The amounts of the ^211At-psyche-B (radioactivity) accumulated in the blood, plasma, urine, tumor, and normal tissues/organs were calculated. That is to say, the rates (% ID/g) of the ^211At-psyche-B accumulated per unit weight (g) of the blood, plasma, urine, tumor, and normal tissues/organs, in the administered ^211At-psyche-B, were shown. Regarding accumulation of the ^211At-psyche-B in the thyroid gland, since the weight of the thyroid gland could not be precisely measured, it was shown that the rate (% ID) of the ^211At-psyche-B accumulated in the thyroid gland in the administered ^211At-psyche-B.

N=C1N[C@H]2[C@H](CS[C@H]2CCCCC(=O)NCCCCCC(=O)Nc2cc(NC(=O)CCCCCNC(=O)CCCC[C@@H]3SC[C@@H]4NC(=N)N[C@@H]43)cc(C(=O)NCCOCCOCCNC(=O)c3cccc([211At])c3)c2)N1 [^211At-psyche-B]
Accumulation in the kidney (after 1 minute): 62.3±9.8 % ID/g | Accumulation in the liver (after 1 minute): 41.4±6.2 % ID/g | Accumulation in the lung (after 1 minute): 10.2±1.6 % ID/g | Accumulation in the spleen (after 1 minute): 3.5±0.1 % ID/g | Accumulation in the tumor (after 1 minute): 0.5±0.1 % ID/g | Clearance from the blood (after 1 minute): 30.7±2.2 % ID/g | tumor-to-blood ratio (after 1 minute): 0.02±0.00 | tumor-to-muscle ratio (after 1 minute): 1.0±0.3 | Accumulation in the kidney (after 1 hour): 38.0±4.5 % ID/g | Accumulation in the liver (after 1 hour): 25.6±2.5 % ID/g | Accumulation in the lung (after 1 hour): 12.2±0.9 % ID/g | Accumulation in the spleen (after 1 hour): 8.5±0.6 % ID/g | Accumulation in the tumor (after 1 hour): 3.2±0.7 % ID/g | Clearance from the blood (after 1 hour): 30.8±5.5 % ID/g | tumor-to-blood ratio (after 1 hour): 0.11±0.02 | tumor-to-muscle ratio (after 1 hour): 4.7±0.4 | Accumulation in the kidney (after 6 hours): 14.9±0.8 % ID/g | Accumulation in the liver (after 6 hours): 23.6±2.3 % ID/g | Accumulation in the lung (after 6 hours): 8.5±0.9 % ID/g | Accumulation in the spleen (after 6 hours): 11.1±0.7 % ID/g | Accumulation in the tumor (after 6 hours): 9.9±2.9 % ID/g | Clearance from the blood (after 6 hours): 19.0±2.6 % ID/g | tumor-to-blood ratio (after 6 hours): 0.51±0.09 | tumor-to-muscle ratio (after 6 hours): 13.1±3.5 | Accumulation in the thyroid gland (after 24 h): 0.16±0.02 % ID | Accumulation in the kidney (after 24 hours): 6.6±0.2% | Accumulation in the liver (after 24 hours): 19.3±0.6% | Accumulation in the lung (after 24 hours): 3.5±0.2% | Accumulation in the spleen (after 24 hours): 10.2±1.6% | Accumulation in the tumor (after 24 hours): 11.3±3.3% | Clearance from the blood (after 24 hours): 2.6±0.5 % ID/g | tumor-to-blood ratio (after 24 hours): 4.38±0.85 | tumor-to-muscle ratio (after 24 hours): 23.2±7.2
